Source: patent US20120277265A1, “NOVEL POLYQUINOLINE DERIVATIVES AND THE THERAPEUTIC USE THEREOF” (CENTRE NATIONAL DE LA RECHERCHE SCIENTIFIQUE (C.N.R.S.), priority 2005, published 2012)

Experiments:
[1] = UV-visible spectrophotometric titration with ZnCl2 (metal/ligand stoichiometry); format: binding; conditions: 15 μM ligand; Tris-HCl buffer pH 7.4/organic solvent, per ligand as in Table 3 column Solvent
Experimental: (§1) An organic solvent (CH3OH, dioxane or DMSO) was added in order to achieve good solubility of the ligands and metal complexes in the concentrations used in these experiments. Exact proportions of the organic solvent/buffer mixture are specified for each UV-visible characterisation of the different ligands or metal complexes.
(§2) Aliquot portions of concentrated CuCl2 or ZnCl2 solutions (M) are added to a 15 μM ligand solution so as to induce only negligible variations in volume. After each addition, changes in absorption spectra are observed immediately and are consistent between two additions, which corresponds to a rapid complexing process. The exact absorption values relating to each ligand and the copper(II) or zinc(II) complexes thereof are detailed hereinafter in the Experimental part (in the Synthesis part for ligands and hereinafter for the metal complexes).
(§3) The stoichiometry of the different ligands (L) for Cu(II) or ZN(II) have therefore been determined spectrophotometrically by metal ion titration. In this example, for an M/L ratio increasing from 0 to 1, π→π* with transition, centred at 251 nm for the free ligand, is shifted to a lower energy with a concomitant appearance of an absorption band in the visible region of the spectrum (λmax to 383 nm), which is probably the result of an MLCT transition. For greater M/L ratios, no additional change in the UV-visible absorption spectra is observed.

[2] = Determination of log D7.4 (1-octanol / Tris-HCl buffer); format: physicochemical; conditions: 1-octanol / 20 mM Tris-HCl buffer containing 150 mM NaCl (pH = 7.4) (1/1, v/v)
Experimental: The ligand (2.0 mg) is dissolved in 2 ml of 1-octanol then 2 ml of 20 mM Tris-HCl buffer, pH=7.4 containing 150 mM NaCl are added. After mixing in a vortex for 3 min at ambient temperature, followed by centrifugation for 5 min at 9,000 rpm, the concentration of the ligand in each phase is determined by UV-visible spectrophotometry. The 1-octanol fractions are thus redivided until reproducible values of coefficient of division of obtained. This coefficient is expressed as the decimal logarithm of [(the concentration of ligand contained in the 1-octanol phase)/(the concentration of ligand contained in the buffered aqueous phase)]=log D7.4. Measurements were taken three times.

[3] = Competition reaction between ligand (Ls), CuCl2 and competing chelator (Lc), UV-visible; affinity constants; conditions: for percentage of the CuLs species at equilibrium, competing ligand EDTA: Ls/CuCl2/Lc 1/1/1 at 15 μM, solvent per ligand as in Table 3; for number of Lc equivalents making it possible to form 50% of CuLs, Lc = EDTA: mixture of Ls (15 μM, 1 equivalent) and CuCl2 (1/1, mol/mol)
Experimental: An organic solvent (CH3OH, dioxane or DMSO) was added in order to achieve good solubility of all the ligands and metal complexes in the concentrations used in these experiments. Monitoring has shown that all the ligands and metal complexes examined yield results corresponding to the Beer-Lambert Law in the experimental conditions used.
Lc competing chelators were selected to provide a range of stability constants for the metal ion M presenting intervals of approximately one or two log units, as well as to make it possible for each competition experiment to quantify one of the Ls, MLs, Lcc or MLc species with a UV-vis spectrum wavelength without contaminating the three other species (FIG. 7). […] As the concentration [MLs]=x % of C is measured on the UV-visible spectra, the concentrations [Ls]=(1−x) % of C, [MLc]=(1−x) % of C and [Lc]=x % of C can be deduced therefrom and:

[4] = UV-visible spectrophotometric titration with CuCl2 (metal/ligand stoichiometry); format: binding; conditions: 15 μM ligand; Tris-HCl buffer pH 7.4/organic solvent, per ligand as in Table 3 column Solvent
Experimental: as §1, §2, §3

[5] = Hydrogen peroxide produced by Aβ1-42 in the presence of CuCl2, ascorbate, air and ligand (Amplex Red H2O2/HRP); format: biochemical; conditions: ligand 1 eq/Cu(II) (0.4 μM); CuCl2 0.4 μM, ascorbate 10 μM, air
Experimental: (§4) FIG. 11: Variation in H2O2 production by copper complexes of Aβ1-42 peptide as a function of the Cu(II)/Aβ stoichiometry. Experiments are carried out for 5 minutes in a sodium phosphate buffer (pH=7.4) in the presence 0.4 μM CuCl2, 10 μM ascorbate and air with or without 0.4 μM of 3 or 7. The H2O2 released is quantified by means of an Amplex-Red H2O2/HRP Assay kit.
(§5) The final concentrations are given. The reactions were carried out in the dark in mM sodium phosphate buffer (pH=7.4). Aβ1-42 (0.2 μM) and CuCl2 (0.4 μM) were pre-incubated for 1 hour at 37° C. while stirring at 1,400 rpm in 375 μl of buffer. Then 2 μl of a solution of ligand to be investigated (0.2; 0.4 or 0.8 μM) in DMSO were added. After incubation for a further hour, 2 μl of an aqueous sodium ascorbate solution (10 μM) were added and incubation was continued for 5 min while stirring. The amount of H2O2 produced is then quantified using an Amplex Red H2O2/HRP Assay Kit (Molecular Probes) while adding a volume of assay reagent to the samples, then incubating them for 1 hour at 37° C. while stirring at 500 rpm. […] Quantification is carried out on the basis of standard curves obtained with known amounts of H2O2.
(§6) The figures in the tables correspond to the amount of H2O2 (expressed in nanomoles) added using an Amplex Red H2O2/HRP Assay kit.

[6] = target: T1, copper complexes of Aβ1-42 peptide (Homo sapiens, UniProt P05067); assay: as above; format: biochemical; conditions: for amount of H2O2, 0.2 μM Aβ1-42 Cu/Aβ = 2 / amount of H2O2, 0.5 μM Aβ1-42 Cu/Aβ = 0.75: ligand 1 eq/Cu(II) (0.4 μM), CuCl2 0.4 μM, ascorbate 10 μM, air
T1 construct: The β-amyloid peptide Aβ1-42 (Aβ1-42) was synthesised, purified (to a purity greater than 95%); made in house; host or cells: chemical peptide synthesis (no expression host)
Experimental: as §4, §5, §6

[7] = Competition reaction between ligand (Ls), ZnCl2 and competing chelator (Lc), UV-visible; affinity constants; format: binding; conditions: Ls/ZnCl2/Lc 1/1/1 at 15 μM; solvent per ligand as in Table 3
Experimental: An organic solvent (CH3OH, dioxane or DMSO) was added in order to achieve good solubility of all the ligands and metal complexes in the concentrations used in these experiments.
As the concentration [MLs]=x % of C is measured on the UV-visible spectra, the concentrations [Ls]=(1−x) % of C, [MLc]=(1−x) % of C and [Lc]=x % of C can be deduced therefrom and:
In these conditions, [MLs]=[MLc]; [MLs]+[Lc]=Y, y≧50 and:
When log Ks 6, these equations are not used since the percentages of metal ion which is free in the solution or chelated by the solvent or the buffer are not negligible.

[8] = target: T2, Aβ1-42 (Homo sapiens, UniProt P05067); assay: Inhibition of the precipitation of Aβ1-42 by the addition of ligand (Micro BCA assay of soluble/aggregated peptide); format: biochemical; conditions: Aβ1-42 5 μM, pH 7.4; for CuCl2 % soluble Aβ: 20 μM CuCl2, 1 h 37° C. then 1 h with 200 μM ligand; for FeCl3 % soluble Aβ: 20 μM FeCl3, 1 h 37° C. then 1 h with 200 μM ligand; for ZnCl2 % soluble Aβ: 20 μM ZnCl2, 1 h 37° C. then 1 h with 200 μM ligand; for without metal % soluble Aβ: no metal salt, 1 h 37° C. then 1 h with 200 μM ligand
T2 construct: The β-amyloid peptide Aβ1-42 (Aβ1-42) was synthesised, purified (to a purity greater than 95%); made in house; host or cells: chemical peptide synthesis (no expression host)
Experimental: After a further hour of incubation, the reaction mixture is centrifuged.
Before use, the water [of Milli-Q Millipore quality] and all buffer solutions were treated on Chelex-100 resin (Biorad) (5 mg/ml) and filtered through 0.2 μm filters (Whatman) to remove potential traces of metal ions or particles.
Working solutions of the peptide were prepared by solubilising 1 mg of lyophilised peptide in 500 μl of water and 500 μl of an aqueous NaOH solution pH=12.0, while stirring in a Thermomixer Comfort (Eppendorf). The peptide preparations are subsequently centrifuged for 10 minutes at 9,000 rpm and the supernatant is used as an “Aβ stock” solution. The concentration of peptide in the “Aβ stock” is determined immediately by colorimetric assay using a Micro BCA Protein Assays kit (Pierce) from standard ranges produced using known amounts of bovine serum albumin (BSA) then the Aβ1-42 peptide solution is aliquoted and frozen rapidly in liquid nitrogen prior to being stored at −20° C. until being used.
Salts are generated by adding one hydrochloric acid equivalent per nitrogen group equivalent of the ligand dissolved in DMSO. After evaporation of the solvent, these salts are dissolved at the desired concentration with DMSO and kept at −20° C. until they are used.
The protocol was established from works by: C. S. Atwood et al., J. Neurochem. […] The final concentrations are given. 500 μl of Aβ1-42 (5 μM is set to aggregate in 20 mM Tris-HCl buffer containing 150 mM NaCl (pH=7.4) for 1 hour at 37° C. while stirring at 1,400 rpm in the absence or presence of metal ions: CuCl2, ZnCl2 or FeCl3 (20 μM). Then 50 pi of ligand to be tested (200 μM) dissolved in DMSO are added and the samples are incubated for 1 further hour at 37° C. while stirring at 1,400 rpm. The samples without ligand also receive 50 μl of DMSO. The samples (final volume=550 μ) are subsequently centrifuged for 20 min at 9,000 rpm, and 500 μl of supernatant are removed. The tube containing the precipitation pellet then receives 450 μl of assay buffer/DMSO mixture (91/9, v/v). […] Quantification is carried out on the basis of standard BSA ranges. The amounts of Aβ1-42 actually contained in the pellet and the supernatant are obtained after a correction due to the presence of a residual portion of supernatant in the pellet-containing fraction.
For the control experiments with derivatives comprising a single quinoline residue, […] of ligand were added because complexes of type L2Cu are conventionally used in these cases.

T1 sequence (P05067 672-713 limits assumed, one chain of several): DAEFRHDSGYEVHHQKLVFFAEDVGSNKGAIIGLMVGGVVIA
T2 sequence (P05067 672-713): as the sequence (P05067 672-713 limits assumed, one chain of several) above

## Oc1cccc2ccc(CCc3ccc4cccc(O)c4n3)nc12 [Compound 7, 2,2′-(1,2-Ethanediyl)-bis(8-hydroxyquinoline)]
[1]
  Complex observed by titration with Zn^II (observed L/Zn(II) stoichiometry): LZn^II(1/1)
[2]
  logD at 3 min: 3.5 ± 0.1
[3]
  percentage of the CuLs species at equilibrium, competing ligand EDTA: 55%
  number of Lc equivalents making it possible to form 50% of CuLs, Lc = EDTA: 1.1 eq
[4]
  Complex observed by titration with Cu^II (observed L/Cu(II) stoichiometry): LCu^II(1/1)
[5]
  amount of H2O2, without Aβ1-42: 0.75 nmol
[6]; FIG. 11, 1 equivalent of ligand per Cu(II) (0.4 μM), Aβ1-42 0.2 to 0.53 μM
  H2O2 production as a function of the Cu/Aβ1-42 ratio: virtually inhibit H2O2 production
[6]
  amount of H2O2, 0.2 μM Aβ1-42 Cu/Aβ = 2: 0.89 ± 0.07 nmol
  amount of H2O2, 0.5 μM Aβ1-42 Cu/Aβ = 0.75: 0.68 nmol
[7]
  percentage of ZnLs species at equilibrium, competing ligand EDTA: 55%
[8]
  CuCl2 % soluble Aβ: 35%
  FeCl3 % soluble Aβ: 40%
  ZnCl2 % soluble Aβ: 60%
  without metal % soluble Aβ: 59%

## Oc1ccc(Cl)c2ccc(CCc3ccc4c(Cl)ccc(O)c4n3)nc12 [Compound 8, 2,2′-(1.2-Ethanediyl)-bis(5-chloro-8-hydroxyquinoline 8)]
[1]
  Complex observed by titration with Zn^II (observed L/Zn(II) stoichiometry): LZn^II(1/1)
[2]
  log D7.4: 4.2 ± 0.1
[3]
  percentage of the CuLs species at equilibrium, competing ligand EDTA: 40%
  number of Lc equivalents making it possible to form 50% of CuLs, Lc = EDTA: 0.65 eq
[4]
  Complex observed by titration with Cu^II (observed L/Cu(II) stoichiometry): LCu^II(1/1)
[5]
  amount of H2O2, without Aβ1-42: 0.66 nmol
[6]
  amount of H2O2, 0.2 μM Aβ1-42 Cu/Aβ = 2: 0.89 ± 0.09 nmol
  amount of H2O2, 0.5 μM Aβ1-42 Cu/Aβ = 0.75: 0.64 nmol
[7]
  percentage of ZnLs species at equilibrium, competing ligand EDTA: 30%
[8]
  CuCl2 % soluble Aβ: 36%
  FeCl3 % soluble Aβ: 41%
  ZnCl2 % soluble Aβ: 58%
  without metal % soluble Aβ: 59%

## Oc1cccc2ccc(CCCCc3ccc4cccc(O)c4n3)nc12 [Compound 10, 2,2′-(1,4-Butanediyl)-bis(8-hydroxyquinoline)]
[1]
  Complex observed by titration with Zn^II (observed L/Zn(II) stoichiometry): LZn^II(1/1)
[2]
  logD at 3 min: 3.8 ± 0.1
[3]
  percentage of the CuLs species at equilibrium, competing ligand EDTA: 45%
[4]
  Complex observed by titration with Cu^II (observed L/Cu(II) stoichiometry): LCu^II(1/1)
[7]
  percentage of ZnLs species at equilibrium, competing ligand EDTA: 45%
[8]
  CuCl2 % soluble Aβ: 42%
  FeCl3 % soluble Aβ: 43%
  ZnCl2 % soluble Aβ: 43%
  without metal % soluble Aβ: 52%

## COc1ccc2ccc(CCc3ccc4ccc(OC)c(O)c4n3)nc2c1O [Compound 17, 2,2′-(1,2-ethanediyl)-bis[7-(methyloxy)-8-quinolinol]]
[1]
  Complex observed by titration with Zn^II (observed L/Zn(II) stoichiometry): LZn^II(1/1)
[2]
  logD at 3 min: 3.5 ± 0.1
[3]
  percentage of the CuLs species at equilibrium, competing ligand EDTA: 55%
[4]
  Complex observed by titration with Cu^II (observed L/Cu(II) stoichiometry): LCu^II(1/1)
[6]
  amount of H2O2, 0.2 μM Aβ1-42 Cu/Aβ = 2: 0.69 nmol
[7]
  percentage of ZnLs species at equilibrium, competing ligand EDTA: 35%
[8]
  CuCl2 % soluble Aβ: 38 ± 4%
  FeCl3 % soluble Aβ: 38%
  ZnCl2 % soluble Aβ: 42 ± 4%
  without metal % soluble Aβ: 63 ± 3%

## CCCCN(c1ccc2cccc(N)c2n1)c1ccc2cccc(N)c2n1 [Compound 23, N-butyl-2,2′-imino-bis(8-quinolineamine)]
[2]
  logD at 3 min: 2.5 ± 0.1
[3]
  percentage of the CuLs species at equilibrium, competing ligand EDTA: 30%
[4]
  Complex observed by titration with Cu^II (observed L/Cu(II) stoichiometry): LCu^II(1/1)
[5]
  amount of H2O2, without Aβ1-42: 0.65 nmol
[6]
  amount of H2O2, 0.2 μM Aβ1-42 Cu/Aβ = 2: 0.69 nmol
  amount of H2O2, 0.5 μM Aβ1-42 Cu/Aβ = 0.75: 0.49 nmol
[8]
  CuCl2 % soluble Aβ: 60 ± 4%
  FeCl3 % soluble Aβ: 62%
  ZnCl2 % soluble Aβ: 58 ± 4%
  without metal % soluble Aβ: 73%
